Read-outs that look alike come from different tables or passages of the source. *1 amine or outer side, *2 acyl side, *3 side chain or, on linkers, in order; H or OH if unused. Where a SMILES comes first, the peptide text is derived from it. [ ]: non-standard residue; d: D form. The star is where a group is joined. 5FAM = O=C1OC2(c3ccc(O)cc3Oc3cc(O)ccc32)c2ccc(C(=O)*)cc21; Quinoxaline2carbonyl = O=C(c1cnc2ccccc2n1)*; Ethylenediamine = C(CN[*:2])N[*:1]; NMeV = CN[C@H](C(=O)O)C(C)C; NMeAbu = CC[C@H](NC)C(=O)O; Abu = CC[C@H](N)C(=O)O; Dap = NC[C@H](N)C(=O)O
Legend:
Experiment in all cases: cells
Format in all cases: cell-based, human
[1] = test system: A-549 lung carcinoma cells
Method: (§1) The twelve synthesized compounds were evaluated in vitro using the following four human cancer cell lines: cervical adenocarcinoma (HeLa), lung carcinoma (A-549), breast adenocarcinoma (SK-BR-3) and colon adenocarcinoma (HT-29). Cells were treated for 24 h with various concentrations of the compounds, and their cytotoxic activity was then assessed using the [3-(4,5-dimethylthiazol-2-yl)-2,5-diphenyltetrazolium] bromide (MTT) assay.[29] Analysis of the dose-response data obtained yielded IC50 (50% inhibitory concentration) values, which are detailed in Table 1.
(§2) Normally growing cells were plated at 5 × 10^3 cells per well into 96-well plates and incubated for 24 h at 37 °C to allow attachment to the surface. Samples were then added dissolved in a DMSO–PBS vehicle (less than 1% in culture medium) at a range of concentrations. Drugs were run in triplicate or greater and control wells contained appropriate percentages of vehicle. After 24 h of exposure, the antitumor effect was measured using a solution of MTT, which is bioreduced by viable cells into formazan. The formed crystals were solubilized using DMSO and the amount of formazan was measured by reading the absorbance at 570 nm. The absorbance of wells containing only the MTT reagent (the plate blank) was subtracted from all wells.
(§3) The IC50 values were determined by dose response curve analysis and statistical analysis using GraphPad Prism software version 5.0a. […]
(§4) mM L-glutamine and antibiotics.
(§5) in a humidified atmosphere containing 5% CO2. For sub-culturing, cells were detached from
(§6) 5 mL of fresh medium preheated at 37 °C. Cellular density was determined in a Neubauer

[2] = test system: HT-29 colon adenocarcinoma cells
Method: as §1, §2, §3, §4, §5, §6

[3] = test system: HeLa cervical adenocarcinoma cells
Method: as §1, §2, §3, §4, §5, §6

[4] = test system: SK-BR-3 breast adenocarcinoma cells
Method: as §1, §2, §3, §4, §5, §6

[5] = MTT assay, 24 h exposure, run in triplicate or greater, read-out: IC50, Cervix HeLa

Row | Structure (SMILES) | IC50 ([1]; 24 h) [µM] | IC50 ([2]; 24 h) [µM] | IC50 ([3]; 24 h) [µM] | IC50 ([4]; 24 h) [µM] | also measured
1 | COc1cccc2c1C(=O)c1c(O)c3c(c(O)c1C2=O)C[C@@](O)(C(=O)CO)C[C@@H]3O[C@H]1C[C@H](N)[C@H](O)[C@H](C)O1 [Doxorubicin, reference compound] |  |  |  |  | IC50 ([1]; Homo sapiens, A549, MTT assay, 24 h exposure, run in triplicate or greater, read-out: IC50, Lung A-549): 0.6 µM; IC50 ([2]; Homo sapiens, HT-29, MTT assay, 24 h exposure, run in triplicate or greater, read-out: IC50, Colon HT-29): 8.9 µM; IC50 ([3]; Homo sapiens, HeLa, MTT assay, 24 h exposure, run in triplicate or greater, read-out: IC50, Cervix HeLa): 5.4 µM; IC50 ([4]; Homo sapiens, SK-BR-3, MTT assay, 24 h exposure, run in triplicate or greater, read-out: IC50, Breast SK-BR-3): 0.5 µM
2 | CC[C@@H](C(=O)N(C)[C@H](C(=O)N[C@H](C(=O)N1CCC[C@@H]1C(=O)NCC(=O)N[C@H](C(=O)N(C)[C@H](C(=O)N(C)[C@@H](CC)C(=O)NCCNC(=O)c1cnc2ccccc2n1)C(C)C)C(C)C)C(C)C)C(C)C)N(C)C(=O)[C@H](CO)NC(=O)c1cnc2ccccc2n1 [RZ1] (Quinoxaline2carbonyl-S[NMeAbu][NMeV]V[dP]GV[NMeV][NMeAbu]-{Ethylenediamine-Quinoxaline2carbonyl}) | 51.2 | 88.4 | 42.2 | 96.7 | 
3 | CC[C@H](NC(=O)[C@H](CNC(=O)c1ccc2c(c1)C(=O)OC21c2ccc(O)cc2Oc2cc(O)ccc21)NC(=O)c1cnc2ccccc2n1)C(=O)N[C@H](C(=O)N[C@H](C(=O)N1CCC[C@@H]1C(=O)NCC(=O)N[C@H](C(=O)N[C@H](C(=O)N[C@@H](CC)C(=O)NCCNC(=O)c1cnc2ccccc2n1)C(C)C)C(C)C)C(C)C)C(C)C [RZ2CF] (Quinoxaline2carbonyl-[Dap](5FAM)[Abu]VV[dP]GVV[Abu]-{Ethylenediamine-Quinoxaline2carbonyl}) |  |  |  |  | IC50 [3, 5]: 16.7 µM
4 | CC[C@@H](C(=O)NCCNC(=O)c1cnc2ccccc2n1)N(C)C(=O)[C@H](C(C)C)N(C)C(=O)[C@@H](NC(=O)CNC(=O)[C@H]1CCCN1C(=O)[C@@H](NC(=O)[C@H](C(C)C)N(C)C(=O)[C@H](CC)N(C)C(=O)[C@@H](CO)NC(=O)c1cnc2ccccc2n1)C(C)C)C(C)C [RZ3] (Quinoxaline2carbonyl-[dS][NMeAbu][NMeV]V[dP]GV[NMeV][NMeAbu]-{Ethylenediamine-Quinoxaline2carbonyl}) | 65.8 | 72.3 | 93.8 | 98.1 | 
5 | CC[C@H](NC(=O)[C@@H](NC(=O)[C@@H](NC(=O)CNC(=O)[C@H]1CCCN1C(=O)[C@@H](NC(=O)[C@@H](NC(=O)[C@H](CC)NC(=O)[C@@H](CO)NC(=O)c1cnc2ccccc2n1)C(C)C)C(C)C)C(C)C)C(C)C)C(=O)NCCNC(=O)c1cnc2ccccc2n1 [RZ4] (Quinoxaline2carbonyl-[dS][Abu]VV[dP]GVV[Abu]-{Ethylenediamine-Quinoxaline2carbonyl}) |  |  |  |  | IC50 ([1]; MTT assay, 24 h exposure, run in triplicate or greater, read-out: IC50, Lung A-549): 34.9 µM; IC50 ([2]; MTT assay, 24 h exposure, run in triplicate or greater, read-out: IC50, Colon HT-29): 75 µM; IC50 [3, 5]: 30.9 µM; IC50 ([4]; MTT assay, 24 h exposure, run in triplicate or greater, read-out: IC50, Breast SK-BR-3): > 100 µM
6 | CC[C@@H](C(=O)N(C)[C@H](C(=O)N[C@H](C(=O)N1CCC[C@@H]1C(=O)NCC(=O)N[C@H](C(=O)N(C)[C@H](C(=O)N(C)[C@@H](CC)C(=O)NCCNC(=O)c1cnc2ccccc2n1)C(C)C)[C@@H](C)O)[C@@H](C)O)C(C)C)N(C)C(=O)[C@H](CO)NC(=O)c1cnc2ccccc2n1 [RZ5] (Quinoxaline2carbonyl-S[NMeAbu][NMeV]T[dP]GT[NMeV][NMeAbu]-{Ethylenediamine-Quinoxaline2carbonyl}) | 70.7 | 84.8 | > 100 | 84.6 | 
7 | CC[C@H](NC(=O)[C@H](CO)NC(=O)c1cnc2ccccc2n1)C(=O)N[C@H](C(=O)N[C@H](C(=O)N1CCC[C@@H]1C(=O)NCC(=O)N[C@H](C(=O)N[C@H](C(=O)N[C@@H](CC)C(=O)NCCNC(=O)c1cnc2ccccc2n1)C(C)C)[C@@H](C)O)[C@@H](C)O)C(C)C [RZ6] (Quinoxaline2carbonyl-S[Abu]VT[dP]GTV[Abu]-{Ethylenediamine-Quinoxaline2carbonyl}) | 84.5 | 83.1 | 45.6 | 55.3 | 
8 | CC[C@@H](C(=O)NCCNC(=O)c1cnc2ccccc2n1)N(C)C(=O)[C@H](C(C)C)N(C)C(=O)[C@@H](NC(=O)CNC(=O)[C@H]1CCCN1C(=O)[C@@H](NC(=O)[C@H](C(C)C)N(C)C(=O)[C@H](CC)N(C)C(=O)[C@@H](CO)NC(=O)c1cnc2ccccc2n1)[C@@H](C)O)[C@@H](C)O [RZ7] (Quinoxaline2carbonyl-[dS][NMeAbu][NMeV]T[dP]GT[NMeV][NMeAbu]-{Ethylenediamine-Quinoxaline2carbonyl}) | 72.8 | 90.7 | 84.5 | > 100 | 
9 | CC[C@H](NC(=O)[C@@H](NC(=O)[C@@H](NC(=O)CNC(=O)[C@H]1CCCN1C(=O)[C@@H](NC(=O)[C@@H](NC(=O)[C@H](CC)NC(=O)[C@@H](CO)NC(=O)c1cnc2ccccc2n1)C(C)C)[C@@H](C)O)[C@@H](C)O)C(C)C)C(=O)NCCNC(=O)c1cnc2ccccc2n1 [RZ8] (Quinoxaline2carbonyl-[dS][Abu]VT[dP]GTV[Abu]-{Ethylenediamine-Quinoxaline2carbonyl}) | 23.4 | 39.8 | 37.1 | 44.5 | 
10 | CC[C@H](C)[C@H](NC(=O)CNC(=O)[C@H]1CCCN1C(=O)[C@@H](NC(=O)[C@H](C(C)C)N(C)C(=O)[C@H](CC)N(C)C(=O)[C@H](CO)NC(=O)c1cnc2ccccc2n1)[C@@H](C)CC)C(=O)N(C)[C@H](C(=O)N(C)[C@@H](CC)C(=O)NCCNC(=O)c1cnc2ccccc2n1)C(C)C [RZ9] (Quinoxaline2carbonyl-S[NMeAbu][NMeV]I[dP]GI[NMeV][NMeAbu]-{Ethylenediamine-Quinoxaline2carbonyl}) | 60.9 | 84.4 | 50.9 | 90.6 | 
11 | CC[C@H](NC(=O)[C@H](CO)NC(=O)c1cnc2ccccc2n1)C(=O)N[C@H](C(=O)N[C@H](C(=O)N1CCC[C@@H]1C(=O)NCC(=O)N[C@H](C(=O)N[C@H](C(=O)N[C@@H](CC)C(=O)NCCNC(=O)c1cnc2ccccc2n1)C(C)C)[C@@H](C)CC)[C@@H](C)CC)C(C)C [RZ10] (Quinoxaline2carbonyl-S[Abu]VI[dP]GIV[Abu]-{Ethylenediamine-Quinoxaline2carbonyl}) | 26.8 | 53.8 | 14.1 | 62.1 | 
12 | CC[C@H](C)[C@H](NC(=O)CNC(=O)[C@H]1CCCN1C(=O)[C@@H](NC(=O)[C@H](C(C)C)N(C)C(=O)[C@H](CC)N(C)C(=O)[C@@H](CO)NC(=O)c1cnc2ccccc2n1)[C@@H](C)CC)C(=O)N(C)[C@H](C(=O)N(C)[C@@H](CC)C(=O)NCCNC(=O)c1cnc2ccccc2n1)C(C)C [RZ11] (Quinoxaline2carbonyl-[dS][NMeAbu][NMeV]I[dP]GI[NMeV][NMeAbu]-{Ethylenediamine-Quinoxaline2carbonyl}) | 96.3 | 64.7 | 24.3 | 78.9 | 
13 | CC[C@H](NC(=O)[C@@H](NC(=O)[C@@H](NC(=O)CNC(=O)[C@H]1CCCN1C(=O)[C@@H](NC(=O)[C@@H](NC(=O)[C@H](CC)NC(=O)[C@@H](CO)NC(=O)c1cnc2ccccc2n1)C(C)C)[C@@H](C)CC)[C@@H](C)CC)C(C)C)C(=O)NCCNC(=O)c1cnc2ccccc2n1 [RZ12] (Quinoxaline2carbonyl-[dS][Abu]VI[dP]GIV[Abu]-{Ethylenediamine-Quinoxaline2carbonyl}) | 82.2 | > 100 | 55.4 | 71.6 | 

Source: PMC5666514 (Chemical Science, 2015)
